Experimental data reported in patent publication EP4631937A1, “CRYSTALLINE FORM OR AMORPHOUS FORM OF OXOISOINDOLE-5-FORMAMIDE COMPOUND OR SALT AND SOLVATE THEREOF” (Hangzhou Glubio Pharmaceutical Co., Ltd., priority 2022, dated 2024).

What was measured:
Format in all cases: physicochemical
[1] = Stability test of crystalline forms (open container at 25°C/92% RH and 40°C/75% RH, sealed container at 60°C, 13 days; XRPD, HPLC, colour); settings: for Initial purity (HPLC/SFC) Chemical purity / Initial purity (HPLC/SFC) Chiral purity: before storage
Experimental: Placed in a open container at 25°C/92% RH and 40°C/75% RH for 13 days, respectively, or in a sealed container at 60°C for 13 days. […]
(§1) Placed in a open container at 25 °C/92% RH and 40 °C/75% RH for 13 days, respectively, or in a sealed container at 60 °C for 13 days. […]
as §1

[2] = Hygroscopicity test by DVS, with XRPD after DVS; settings: for 2nd adsorption weight change percentage / 2nd desorption weight change percentage / 1st adsorption weight change percentage / 1st desorption weight change percentage / XRPD after DVS test / moisture adsorbed (DVS): 25 °C; for XRPD after DVS test: after 40-0-95-0-40% RH
Experimental: • DVS Intrinsic Dynamic Vapor Sorption Instrument • Gas flow rate 200 sccm, furnace temperature 25 °C.
(§2) The hygroscopicity and dehydration behavior of crystalline form B was investigated by DVS. Humidity program: 25 °C, 40-0-95-0-40% RH, dm/dt 0.002, shortest equilibrium time was 60 min, and longest equilibrium time was 360 min. XRPD was also performed on the samples after DVS test to determine whether the crystal transformation occurred.
as §2, with “E” for “B”
as §2, with “G” for “B”

[3] = Stability test of crystalline forms (open container at 25°C/92% RH and 40°C/75% RH, sealed container at 60°C, 13 days; XRPD, HPLC, colour); settings: for Color / Solid (XRPD) / Chiral purity / Chemical purity: Solid; for Chiral purity / Chemical purity: HPLC/SFC
[4] = Solid, 40 °C/75% RH, open container, 13 days
[5] = relative humidity 0%, listed as Crystalline form B
[6] = relative humidity 10%, listed as Crystalline form B
[7] = relative humidity 20%, listed as Crystalline form B
[8] = relative humidity 30%, listed as Crystalline form B
[9] = relative humidity 40%, listed as Crystalline form B
[10] = relative humidity 50%, listed as Crystalline form B
[11] = relative humidity 60%, listed as Crystalline form B
[12] = relative humidity 70%, listed as Crystalline form B
[13] = relative humidity 80%, listed as Crystalline form B
[14] = relative humidity 90%, listed as Crystalline form B
[15] = relative humidity 95%, listed as Crystalline form B
[16] = 25 °C/92% RH, open container, 13 days
[17] = 40 °C/75% RH, open container, 13 days
[18] = 60 °C, sealed container, 13 days
[19] = relative humidity 0%, listed as Crystalline form E
[20] = relative humidity 10%, listed as Crystalline form E
[21] = relative humidity 20%, listed as Crystalline form E
[22] = relative humidity 30%, listed as Crystalline form E
[23] = relative humidity 40%, listed as Crystalline form E
[24] = relative humidity 50%, listed as Crystalline form E
[25] = relative humidity 60%, listed as Crystalline form E
[26] = relative humidity 70%, listed as Crystalline form E
[27] = relative humidity 80%, listed as Crystalline form E
[28] = relative humidity 90%, listed as Crystalline form E
[29] = relative humidity 95%, listed as Crystalline form E
[30] = 25 °C/92% RH, open container, 1 week, listed as Crystalline form E
[31] = 40 °C/75% RH, open container, 1 week, listed as Crystalline form E
[32] = 60 °C, sealed container, 1 week, listed as Crystalline form E

## O=C1CC[C@H](N2Cc3cc(C(=O)N[C@H](c4ccc(Cl)cn4)C4CCC4)ccc3C2=O)C(=O)N1 [crystalline form B, N-((S)-(5-chloropyridin-2-yl)(cyclobutyl)methyl)-2-((S)-2,6-dioxopiperidin-3-yl)-1-oxoisoindoline-5-carboxamide]
[1]; Solid, 25 °C/92% RH, open container, 13 days, HPLC/SFC
  Chemical purity: 99.2% See Figure 15c
[1]; [4]
  Color: No color change
  Solid (XRPD): The crystal form did not change, see Figure 15e
[1]; listed as Crystalline form B
  Initial purity (HPLC/SFC) Chemical purity: 99.5% See Figure 15a
  Initial purity (HPLC/SFC) Chiral purity: 99.0% See Figure 15b
[2]; relative humidity 0%
  2nd adsorption weight change percentage: 0.0%
  2nd desorption weight change percentage: 0.0%
[2]; [5]
  1st adsorption weight change percentage: 1.6%
  1st desorption weight change percentage: 1.6%
[2]; [6]
  1st adsorption weight change percentage: 2.0%
  1st desorption weight change percentage: 2.0%
  2nd adsorption weight change percentage: 0.4%
  2nd desorption weight change percentage: 0.4%
[2]; [7]
  1st adsorption weight change percentage: 2.7%
  1st desorption weight change percentage: 2.7%
  2nd adsorption weight change percentage: 1.1%
  2nd desorption weight change percentage: 1.1%
[2]; [8]
  1st adsorption weight change percentage: 3.2%
  1st desorption weight change percentage: 3.3%
  2nd adsorption weight change percentage: 1.7%
  2nd desorption weight change percentage: 1.7%
[2]; [9]
  1st adsorption weight change percentage: 3.7%
  1st desorption weight change percentage: 3.8%
  2nd adsorption weight change percentage: 2.2%
  2nd desorption weight change percentage: 2.3%
[2]; [10]
  1st adsorption weight change percentage: 4.5%
  2nd desorption weight change percentage: 3.3%
[2]; [11]
  1st adsorption weight change percentage: 5.0%
  2nd desorption weight change percentage: 3.9%
[2]; [12]
  1st adsorption weight change percentage: 5.4%
  2nd desorption weight change percentage: 5.4%
[2]; [13]
  1st adsorption weight change percentage: 5.9%
  2nd desorption weight change percentage: 5.9%
[2]; [14]
  1st adsorption weight change percentage: 6.9%
  2nd desorption weight change percentage: 7.3%
[2]; [15]
  1st adsorption weight change percentage: 9.2%
  2nd desorption weight change percentage: 9.2%
[2]; listed as Crystalline form B
  XRPD after DVS test: The crystal form did not change, see Figure 18b
[2]; hygroscopic tests of Table 17, Table 18 and Table 19, DVS 25 °C, 40-0-95-0-40% RH
  stability (crystal form): the crystal form did not change
[2]; under 40%RH-80%RH
  moisture adsorbed (DVS): 2.2%
[2]; under 40%RH-95%RH, listed as Crystalline form B
  moisture adsorbed (DVS): 5.5%
[3]; [16]
  Color: No color change
  Solid (XRPD): The crystal form did not change, see Figure 15e
  Chiral purity: 98.8% See Figure 15d
[3]; [17]
  Chemical purity: 97.9% See Figure 15f
  Chiral purity: 98.8% See Figure 15g
[3]; [18]
  Color: No color change
  Solid (XRPD): The crystal form did not change, see Figure 15e
  Chemical purity: 97.8% See Figure 15h
  Chiral purity: 98.9% See Figure 15i
[3]; stability tests of Table 14, Table 15 and Table 16, 25°C/92% RH, 40°C/75% RH, 60°C, 13 days
  stability (crystal form): the crystal form did not change

## O=C1CC[C@H](N2Cc3cc(C(=O)N[C@H](c4ccc(Cl)cn4)C4CCC4)ccc3C2=O)C(=O)N1 [crystalline form E, N-((S)-(5-chloropyridin-2-yl)(cyclobutyl)methyl)-2-((S)-2,6-dioxopiperidin-3-yl)-1-oxoisoindoline-5-carboxamide]
[1]; listed as Crystalline form E
  Initial purity (HPLC/SFC) Chemical purity: 99.3% See Figure 16a
  Initial purity (HPLC/SFC) Chiral purity: 98.7% See Figure 16b
[2]; [19]
  1st adsorption weight change percentage: 0.1%
  1st desorption weight change percentage: 0.1%
[2]; [20]
  1st adsorption weight change percentage: 0.3%
  1st desorption weight change percentage: 0.3%
  2nd adsorption weight change percentage: 0.3%
  2nd desorption weight change percentage: 0.3%
[2]; [21]
  1st adsorption weight change percentage: 1.3%
  1st desorption weight change percentage: 1.3%
  2nd adsorption weight change percentage: 1.3%
  2nd desorption weight change percentage: 1.3%
[2]; [22]
  1st adsorption weight change percentage: 1.6%
  1st desorption weight change percentage: 1.6%
  2nd adsorption weight change percentage: 1.6%
  2nd desorption weight change percentage: 1.6%
[2]; [23]
  1st adsorption weight change percentage: 2.0%
  1st desorption weight change percentage: 2.0%
  2nd adsorption weight change percentage: 2.0%
  2nd desorption weight change percentage: 2.0%
[2]; [24]
  1st adsorption weight change percentage: 2.7%
  2nd desorption weight change percentage: 2.8%
[2]; [25]
  1st adsorption weight change percentage: 3.1%
  2nd desorption weight change percentage: 3.3%
[2]; [26]
  1st adsorption weight change percentage: 3.5%
  2nd desorption weight change percentage: 3.5%
[2]; [27]
  1st adsorption weight change percentage: 3.6%
  2nd desorption weight change percentage: 3.6%
[2]; [28]
  1st adsorption weight change percentage: 3.8%
  2nd desorption weight change percentage: 3.8%
[2]; [29]
  1st adsorption weight change percentage: 4.0%
  2nd desorption weight change percentage: 4.0%
[2]; listed as Crystalline form E
  XRPD after DVS test: The crystal form did not change, see Figure 19b
[2]; under 40%RH-95%RH, listed as Crystalline form E
  moisture adsorbed (DVS): 2.0% of moisture was adsorbed under 40%RH-95%RH, see Figure 19a
[3]; 25 °C/92% RH, open container, 1 week
  Color: No color change
[3]; [30]
  Chemical purity: 98.3% See Figure 16c
  Chiral purity: 98.6% See Figure 16d
  Solid (XRPD): The crystal form did not change, see Figure 16e
[3]; 40 °C/75% RH, open container, 1 week
  Color: No color change
[3]; [31]
  Chemical purity: 98.6% See Figure 16f
  Chiral purity: 98.6% See Figure 16g
  Solid (XRPD): The crystal form did not change, see Figure 16e
[3]; 60 °C, sealed container, 1 week
  Color: No color change
[3]; [32]
  Chemical purity: 98.8% See Figure 16h
  Chiral purity: 98.7% See Figure 16i
  Solid (XRPD): The crystal form did not change, see Figure 16e
